Experimental data published in patent US12595255B2, “Heteroaryl-substituted imidazole derivatives” (Hoffmann-La Roche Inc., priority 2021, dated 2026).
Like-named read-outs stand apart in the source and are kept apart here.

Test system: Acinetobacter baumannii ATCC17961
Assay: Antimicrobial susceptibility testing: 90% growth inhibitory concentration (IC90) determination
Format: cell-based
Protocol: Assay Procedures Antimicrobial Susceptibility Testing: 90% Growth Inhibitory Concentration (IC90) Determination
The in vitro antimicrobial activity of the compounds was determined according to the following procedure:
The assay used a 10-points Iso-Sensitest broth medium to measure quantitatively the in vitro activity of the compounds against Acinetobacter baumannii ATCC17961.
Stock compounds in DMSO were serially twofold diluted (e.g. range from 50 to 0.097 μM final concentration) in 384 wells microtiter plates and inoculated with 49 μl the bacterial suspension in Iso-Sensitest medium to have a final cell concentration of ˜5×10^5 CFU/ml in a final volume/well of 50 μl/well. Microtiter plates were incubated at 35±2° C.
Bacterial cell growth was determined with the measurement of optical density at λ=600 nm each 20 minutes over a time course of 16 h. Growth inhibition was calculated during the logarithmic growth of the bacterial cells with determination of the concentration inhibiting 50% (IC50) and 90% (IC90) of the growth.
Table 1 provides the 90% growth inhibitory concentrations (IC90) in micromoles per liter of the compounds of present invention obtained against the strain Acinetobacter baumannii ATCC17961.

[1] = ATCC17961, 90% growth inhibitory concentration, Iso-Sensitest broth, OD 600 nm over 16 h, 35±2° C., read-out: ATCC 17961 IC90
[2] = ATCC17961, 16 h, read-out: ATCC 17961 IC90 [μM]

Row | Structure (SMILES) | IC90 [1] [µM] | IC90 [2] [µM]
1 | CN(C)CC(=O)N1CCN(C(=O)c2ccc(NC(=O)c3ncc(-c4cc(F)c(N(C)C)nc4F)n3C)cc2Cl)CC1 [Example C1, N-[3-chloro-4-[4-[2-(dimethylamino)acetyl]piperazine-1-carbonyl]phenyl]-5-[6-(dimethylamino)-2,5-difluoro-3-pyridyl]-1-methyl-imidazole-2-carboxamide] | 0.53 | –
2 | COc1ccc(-c2cnc(C(=O)Nc3ccc(C(=O)N4CCN(C(=O)[C@@H]5C[C@@H](O)CN5)CC4)c(Cl)c3)n2C)c(C(F)(F)F)n1 [Example A17, N-[3-chloro-4-[4-[(2S,4R)-4-hydroxypyrrolidine-2-carbonyl]piperazine-1-carbonyl]phenyl]-5-[6-methoxy-2-(trifluoromethyl)-3-pyridyl]-1-methyl-imidazole-2-carboxamide] | 0.36 | –
3 | CN(C)c1nc(F)c(-c2cnc(C(=O)Nc3ccc(C(=O)NC4CCN(C(=O)CCOCC[N+](C)(C)C)CC4)c(Cl)c3)n2C)cc1F [Example D10, 2-[3-[4-[[2-chloro-4-[[5-[6-(dimethylamino)-2,5-difluoro-3-pyridyl]-1-methyl-imidazole-2-carbonyl]amino]benzoyl]amino]-1-piperidyl]-3-oxo-propoxy]ethyl-trimethyl-ammonium] | – | 5.6
4 | CN(C)c1nc(F)c(-c2cnc(C(=O)Nc3ccc(C(=O)N4CCN(C(=O)CC5(O)CCNCC5)CC4)c(Cl)c3)n2C)cc1F [Example F3, N-[3-chloro-4-[4-[2-(4-hydroxy-4-piperidyl)acetyl]piperazine-1-carbonyl]phenyl]-5-[6-(dimethylamino)-2,5-difluoro-3-pyridyl]-1-methyl-imidazole-2-carboxamide] | 0.43 | –
5 | Cn1c(-c2c(Cl)ccc3[nH]ccc23)cnc1C(=O)Nc1ccc(C(=O)N2CCN(C(=O)C[C@@H]3CCNC3)CC2)c(Cl)c1 [Example A11, 5-(5-chloro-1H-indol-4-yl)-N-[3-chloro-4-[4-[2-[(3S)-pyrrolidin-3-yl]acetyl]piperazine-1-carbonyl]phenyl]-1-methyl-imidazole-2-carboxamide] | 0.29 | –
6 | CN(C)c1nc(F)c(-c2cnc(C(=O)Nc3ccc(C(=O)NCCCCCCN)c(Cl)c3)n2C)cc1F [Example B1, N-[4-(6-aminohexylcarbamoyl)-3-chloro-phenyl]-5-[6-(dimethylamino)-2,5-difluoro-3-pyridyl]-1-methyl-imidazole-2-carboxamide] | 1.7 | –
7 | Cn1c(-c2ccc3[nH]nc(C(F)(F)F)c3c2)cnc1C(=O)Nc1ccc(C(=O)N2CCN(C(=O)C[C@@H]3CCNC3)CC2)c(Cl)c1 [Example A3, N-[3-chloro-4-[4-[2-[(3S)-pyrrolidin-3-yl]acetyl]piperazine-1-carbonyl]phenyl]-1-methyl-5-[3-(trifluoromethyl)-1H-indazol-5-yl]imidazole-2-carboxamide] | 0.23 | –
8 | CN(C)c1nc(F)c(-c2cnc(C(=O)Nc3ccc(C(=O)NC4CC(NC(=O)C[N+](C)(C)C)C4)c(Cl)c3)n2C)cc1F (stereo not drawn) [Example D8, [2-[[3-[[2-chloro-4-[[5-[6-(dimethylamino)-2,5-difluoro-3-pyridyl]-1-methyl-imidazole-2-carbonyl]amino]benzoyl]amino]cyclobutyl]amino]-2-oxo-ethyl]-trimethyl-ammonium] | – | 2.7
9 | Cc1cc(NC(=O)c2ncc(-c3cc(F)c(N(C)C)nc3F)n2C)ccc1C(=O)N1CCN(C(=O)CN(C)C)CC1 [Example C2, N-[4-[4-[2-(dimethylamino)acetyl]piperazine-1-carbonyl]-3-methyl-phenyl]-5-[6-(dimethylamino)-2,5-difluoro-3-pyridyl]-1-methyl-imidazole-2-carboxamide] | 2.5 | –
10 | CN(C)c1nc(F)c(-c2cnc(C(=O)Nc3ccc(C(=O)NCCCCCC[N+](C)(C)C)c(Cl)c3)n2C)cc1F [Example D3, 6-[[2-chloro-4-[[5-[6-(dimethylamino)-2,5-difluoro-3-pyridyl]-1-methyl-imidazole-2-carbonyl]amino]benzoyl]amino]hexyl-trimethyl-ammonium] | 4.2 | –
11 | CN(C)c1nc(F)c(-c2cnc(C(=O)Nc3ccc(C(=O)N4CCC(C(=O)NC5CC[N+](C)(C)C5)CC4)c(Cl)c3)n2C)cc1F (stereo not drawn) [Example D13, 1-[2-chloro-4-[[5-[6-(dimethylamino)-2,5-difluoro-3-pyridyl]-1-methyl-imidazole-2-carbonyl]amino]benzoyl]-N-(1,1-dimethylpyrrolidin-1-ium-3-yl)piperidine-4-carboxamide] | 0.73 | –
12 | CN(C)c1nc(F)c(-c2cnc(C(=O)Nc3ccc(C(=O)N4CCC(NC(=O)C[N+](C)(C)C)CC4)c(Cl)c3)n2C)cc1F [Example D9, [2-[[1-[2-chloro-4-[[5-[6-(dimethylamino)-2,5-difluoro-3-pyridyl]-1-methyl-imidazole-2-carbonyl]amino]benzoyl]-4-piperidyl]amino]-2-oxo-ethyl]-trimethyl-ammonium] | – | 1.6

Now from value to compound, other results behind:

Row | IC90 [1] [µM] | Structure (SMILES) | IC90 [2] [µM]
13 | 1.2 | CNc1nc(F)c(-c2cnc(C(=O)Nc3ccc(C(=O)N4CCN(C(=O)C5CCNCC5)CC4)c(Cl)c3)n2C)cc1F [Example E1, N-[3-chloro-4-[4-(piperidine-4-carbonyl)piperazine-1-carbonyl]phenyl]-5-[2,5-difluoro-6-(methylamino)-3-pyridyl]-1-methyl-imidazole-2-carboxamide] | –
14 | 1.1 | Cn1c(-c2cccc3c2ccn3C)cnc1C(=O)Nc1ccc(C(=O)N2CCN(C(=O)C3CCNCC3)CC2)c(Cl)c1 [Example A13, N-[3-chloro-4-[4-(piperidine-4-carbonyl)piperazine-1-carbonyl]phenyl]-1-methyl-5-(1-methylindol-4-yl)imidazole-2-carboxamide] | –
15 | 0.47 | CN(C)c1ccc(-c2cnc(C(=O)Nc3ccc(C(=O)N4CCN(C(=O)C5CCNCC5)CC4)c(Cl)c3)n2C)c(Cl)n1 [Example E5, 5-[2-chloro-6-(dimethylamino)-3-pyridyl]-N-[3-chloro-4-[4-(piperidine-4-carbonyl)piperazine-1-carbonyl]phenyl]-1-methyl-imidazole-2-carboxamide] | –
16 | 0.58 | CN(C)c1ncc(-c2cnc(C(=O)Nc3ccc(C(=O)N4CCN(C(=O)C[C@@H]5CCNC5)CC4)c(Cl)c3)n2C)c(C(F)(F)F)n1 [Example A9, N-[3-chloro-4-[4-[2-[(3S)-pyrrolidin-3-yl]acetyl]piperazine-1-carbonyl]phenyl]-5-[2-(dimethylamino)-4-(trifluoromethyl)pyrimidin-5-yl]-1-methyl-imidazole-2-carboxamide] | –
17 | 0.74 | CN(C)c1nc(F)c(-c2cnc(C(=O)Nc3ccc(C(=O)N4CCN(C(=O)C5CCNC5)CC4)c(Cl)c3)n2C)cc1F (stereo not drawn) [Example F4, N-[3-chloro-4-[4-(pyrrolidine-3-carbonyl)piperazine-1-carbonyl]phenyl]-5-[6-(dimethylamino)-2,5-difluoro-3-pyridyl]-1-methyl-imidazole-2-carboxamide] | –
18 | 0.91 | COc1ccc(-c2cnc(C(=O)Nc3ccc(C(=O)N4CCN(C(=O)C5CCNCC5)CC4)c(Cl)c3)n2C)c(C(F)F)n1 [Example A19, N-[3-chloro-4-[4-(piperidine-4-carbonyl)piperazine-1-carbonyl]phenyl]-5-[2-(difluoromethyl)-6-methoxy-3-pyridyl]-1-methyl-imidazole-2-carboxamide] | –
19 | 0.72 | Cn1c(-c2ccc(Cl)nc2Cl)cnc1C(=O)Nc1ccc(C(=O)N2CCN(C(=O)C3CCNCC3)CC2)c(Cl)c1 [Example A5, N-[3-chloro-4-[4-(piperidine-4-carbonyl)piperazine-1-carbonyl]phenyl]-5-(2,6-dichloro-3-pyridyl)-1-methyl-imidazole-2-carboxamide] | –
20 | 0.31 | CN(C)c1ccc(-c2cnc(C(=O)Nc3ccc(C(=O)N4CCN(C(=O)C5CCNCC5)CC4)c(Cl)c3)n2C)c(C(F)(F)F)n1 [Example A6, N-[3-chloro-4-[4-(piperidine-4-carbonyl)piperazine-1-carbonyl]phenyl]-5-[6-(dimethylamino)-2-(trifluoromethyl)-3-pyridyl]-1-methyl-imidazole-2-carboxamide] | –
21 | 0.59 | CN(C)c1nc(F)c(-c2cnc(C(=O)Nc3ccc(C(=O)N4CCN(C(=O)C5CC[N+](C)(C)C5)CC4)c(Cl)c3)n2C)cc1F (stereo not drawn) [Example D5, N-[3-chloro-4-[4-(1,1-dimethylpyrrolidin-1-ium-3-carbonyl)piperazine-1-carbonyl]phenyl]-5-[6-(dimethylamino)-2,5-difluoro-3-pyridyl]-1-methyl-imidazole-2-carboxamide] | –
22 | 0.49 | Cn1c(-c2cccc3[nH]ccc23)cnc1C(=O)Nc1ccc(C(=O)N2CCN(C(=O)C3CCNCC3)CC2)c(Cl)c1 [Example A12, N-[3-chloro-4-[4-(piperidine-4-carbonyl)piperazine-1-carbonyl]phenyl]-5-(1H-indol-4-yl)-1-methyl-imidazole-2-carboxamide] | –
23 | 0.66 | CN(C)c1nc(F)c(-c2cnc(C(=O)Nc3ccc(C(=O)N4CCN(C(=O)CC5CCNCC5)CC4)c(Cl)c3)n2C)cc1F [Example F6, N-[3-chloro-4-[4-[2-(4-piperidyl)acetyl]piperazine-1-carbonyl]phenyl]-5-[6-(dimethylamino)-2,5-difluoro-3-pyridyl]-1-methyl-imidazole-2-carboxamide] | –
24 | 1.4 | COc1ncc(-c2cnc(C(=O)Nc3ccc(C(=O)N4CCN(C(=O)C5CCNCC5)CC4)c(Cl)c3)n2C)c(C(F)(F)F)n1 [Example A10, N-[3-chloro-4-[4-(piperidine-4-carbonyl)piperazine-1-carbonyl]phenyl]-5-[2-methoxy-4-(trifluoromethyl)pyrimidin-5-yl]-1-methyl-imidazole-2-carboxamide] | –
